What all share (assay): single-round in vitro transcription termination
Conditions in all cases: apparent; co-transcriptional

For experiment [1], the system named is metI SAM-I riboswitch transcript, wild-type (RNA, riboswitch) ACUUAGAAAAUUGAAAUCGAUAUUUCUUAUCGUGAGAGGUGGAGGGACUGGCCCUUAGAAACCUCAGCAACCGGCUUGUUUUGCAUUUGCAAAGCGCCAAGGUGCUAAAUCCAGCAAGCGUUUUUUAUGCUUGGAAGAUAAGAAGAAGCGUUAAACCCCUUCUUCUUAUGAAGAAGGGGUUUUUAUUUUGAAAAGGGAAGGUGUCAGCUAUAUGUCACAGCACGUUGAAACGAAAUUAGCUCAAAUUGGGAA
In experiment [2] the test system is metI SAM-I riboswitch transcript, U114A:A138U (RNA, riboswitch) ACUUAGAAAAUUGAAAUCGAUAUUUCUUAUCGUGAGAGGUGGAGGGACUGGCCCUUAGAAACCUCAGCAACCGGCUUGUUUUGCAUUUGCAAAGCGCCAAGGUGCUAAAACCAGCAAGCGUUUUUUAUGCUUGGAUGAUAAGAAGAAGCGUUAAACCCCUUCUUCUUAUGAAGAAGGGGUUUUUAUUUUGAAAAGGGAAGGUGUCAGCUAUAUGUCACAGCACGUUGAAACGAAAUUAGCUCAAAUUGGGAA
Experiment [3] relates to metI SAM-I riboswitch transcript, GUU (U114A:A137U:A138U) (RNA, riboswitch) ACUUAGAAAAUUGAAAUCGAUAUUUCUUAUCGUGAGAGGUGGAGGGACUGGCCCUUAGAAACCUCAGCAACCGGCUUGUUUUGCAUUUGCAAAGCGCCAAGGUGCUAAAACCAGCAAGCGUUUUUUAUGCUUGGUUGAUAAGAAGAAGCGUUAAACCCCUUCUUCUUAUGAAGAAGGGGUUUUUAUUUUGAAAAGGGAAGGUGUCAGCUAUAUGUCACAGCACGUUGAAACGAAAUUAGCUCAAAUUGGGAA

As for `C[S+](CC[C@H](N)C(=O)O)C[C@H]1O[C@@H](n2cnc3c(N)ncnc32)[C@H](O)[C@@H]1O` (stereo partly drawn), the T50 was ~ 183 nM in experiment [1], ~ 673 nM in experiment [2] and ~ 1.3 µM in experiment [3].

For the origin of these results see paper PMC5602112 (2017).
